Tests used:
Assay type in all cases: toxicity, cell-based
U2OS = test: Incucyte cell viability with U2OS; conditions: human, 10 µM, compound concentration 10 uM
Fibroblast = test: Incucyte cell viability with human fibroblast; conditions: 10 µM, compound concentration 10 uM
HEK-293T = test: Incucyte cell viability with HEK293T; conditions: human, 10 µM, compound concentration 10 uM
Also: unitless GR value; below 1 slowed growth and below 0 cell loss.

Row | Compound | Growth Rate (U2OS; 0 h, replicate number 1) | Growth Rate (U2OS; 0 h, replicate number 2) | Growth Rate (U2OS; 6 h, replicate number 2) | Growth Rate (U2OS; 12 h, replicate number 1) | Growth Rate (U2OS; 12 h, replicate number 2) | Growth Rate (U2OS; 18 h, replicate number 1) | Growth Rate (U2OS; 18 h, replicate number 2) | Growth Rate (U2OS; 24 h, replicate number 2) | Growth Rate (Fibroblast; 0 h, replicate number 1) | Growth Rate (Fibroblast; 6 h, replicate number 2) | Growth Rate (Fibroblast; 12 h, replicate number 2) | Growth Rate (Fibroblast; 18 h, replicate number 1) | Growth Rate (Fibroblast; 18 h, replicate number 2) | Growth Rate (Fibroblast; 24 h, replicate number 1) | Growth Rate (HEK-293T; 6 h, replicate number 1) | Growth Rate (HEK-293T; 12 h, replicate number 1) | Growth Rate (HEK-293T; 18 h, replicate number 1) | Growth Rate (Fibroblast; 12 h, replicate number 1) | Growth Rate (HEK-293T; 24 h, replicate number 1) | Growth Rate (HEK-293T; 0 h, replicate number 2) | also measured
1 | O=C(Nc1cc(C(F)(F)F)cc(C(F)(F)F)c1)c1cc(Cl)ccc1O [IMD-0354] | -0.14 | -1 | -0.23 | 0.7 | 0.03 | 0.69 | 0.18 | 0.26 | -0.62 | -1 | -0.61 | -0.63 | -0.45 | 0.42 | 0.18 | 0.81 | 0.76 |  |  |  | Growth Rate (U2OS; 6 h, replicate number 1): 0.76; Growth Rate (U2OS; 24 h, replicate number 1): 0.71; Growth Rate (Fibroblast; 0 h, replicate number 2): -0.02; Growth Rate (Fibroblast; 24 h, replicate number 2): -0.33; Growth Rate (HEK-293T; 6 h, replicate number 2): -0.86; Growth Rate (HEK-293T; 12 h, replicate number 2): -0.2; Growth Rate (HEK-293T; 18 h, replicate number 2): 0.17; Growth Rate (HEK-293T; 24 h, replicate number 2): 0.36
2 | Nc1ncnc2c1c(I)cn2[C@@H]1O[C@H](CO)[C@@H](O)[C@H]1O [IODOTUBERCIDIN] | -0.27 |  | 0.34 | 0.15 | -0.14 | -0.13 | -0.04 | -0.18 |  | 0.95 | 0.25 | 0.57 | 0.43 | 0.53 | -0.1 | -0.22 | -0.21 | 0.39 | -0.1 |  | Growth Rate (U2OS; 6 h, replicate number 1): -0.39; Growth Rate (U2OS; 24 h, replicate number 1): -0.26; Growth Rate (Fibroblast; 0 h, replicate number 2): 0.24; Growth Rate (Fibroblast; 6 h, replicate number 1): 0.18; Growth Rate (HEK-293T; 0 h, replicate number 1): -0.62; Growth Rate (HEK-293T; 6 h, replicate number 2): -0.01; Growth Rate (HEK-293T; 12 h, replicate number 2): -0.29; Growth Rate (HEK-293T; 18 h, replicate number 2): -0.24; Growth Rate (HEK-293T; 24 h, replicate number 2): -0.16
3 | CN[C@@H](C)C/C=C/c1cncc(OC(C)C)c1 [ISPRONICLINE] | -0.66 | 0.2 |  | 0.82 |  | 0.83 |  |  | -0.27 | 0.53 | 0.98 | 0.22 | 0.72 | 0.97 | 0.31 | 0.02 | 0.32 | -0.29 | 0.28 | 0.86 | Growth Rate (U2OS; 6 h, replicate number 1): 0.65; Growth Rate (U2OS; 24 h, replicate number 1): 0.83; Growth Rate (Fibroblast; 0 h, replicate number 2): -0.46; Growth Rate (Fibroblast; 24 h, replicate number 2): 0.87; Growth Rate (HEK-293T; 0 h, replicate number 1): 0.9; Growth Rate (HEK-293T; 24 h, replicate number 2): 0.96
4 | COC(=O)C1=C(C)NC(C)=C(C(=O)OC(C)C)C1c1cccc2nonc12 (configuration not stated) [ISRADIPINE] | 0.46 | 0.25 | 0.83 | 1 | 0.87 |  | 0.89 | 0.9 |  |  |  | -0.41 |  | 0.29 |  |  |  | -1 |  | 0.32 | Growth Rate (Fibroblast; 6 h, replicate number 1): -0.03; Growth Rate (HEK-293T; 0 h, replicate number 1): 0.8
5 | CC(C)(C)c1cc(C(C)(C)C)c(NC(=O)c2c[nH]c3ccccc3c2=O)cc1O [IVACAFTOR] |  | 0.5 |  |  | 0.7 |  | 0.92 | 0.89 |  | 0.55 |  | 0.28 | 0.65 |  | 0.19 | 0.71 | 0.65 |  | 0.92 | 0.3 | Growth Rate (U2OS; 24 h, replicate number 1): 0.98; Growth Rate (Fibroblast; 0 h, replicate number 2): -0.84; Growth Rate (Fibroblast; 24 h, replicate number 2): 0.91; Growth Rate (HEK-293T; 6 h, replicate number 2): 0.98; Growth Rate (HEK-293T; 12 h, replicate number 2): 0.69; Growth Rate (HEK-293T; 18 h, replicate number 2): 0.75; Growth Rate (HEK-293T; 24 h, replicate number 2): 0.72
6 | COCCc1ccc(-c2c(C)nc3c(N4CCOCC4)ccnn23)cn1 [JNJ-42396302] | -0.6 | 0.07 | 0.56 | 0.98 | 0.93 |  | 0.99 |  | 0.07 | 0.78 | 0.81 | 0.88 | 0.84 | 0.86 |  |  | 0.91 | 0.86 | 0.86 | 0.44 | Growth Rate (Fibroblast; 24 h, replicate number 2): 0.91
7 | COc1nc2ccc([C@@](O)(c3ccccc3)C3CCN(C(C)=O)CC3)cc2c(Cl)c1Cc1ccc(-n2cccn2)cc1 [JNJ-54119936] | -1 | 0.93 | 0.45 | 0.93 | 0.72 | 0.84 | 0.7 | 0.64 | -1 |  |  |  | 0.98 |  |  | 0.65 | 0.37 |  | 0.25 | -1 | Growth Rate (U2OS; 24 h, replicate number 1): 0.94; Growth Rate (HEK-293T; 0 h, replicate number 1): -0.96
8 | CC(=O)Nc1ncc(CN2CCC[C@H](Cc3cc(C)nc(C)c3)C2)s1 [JNJ-65355394] | -1 |  |  |  | 0.62 | 0.96 | 0.92 | 0.78 | -1 | 0.74 | 0.75 |  | 0.94 |  | 0.82 | 0.83 |  | 0.9 | 0.91 | -0.2 | Growth Rate (U2OS; 6 h, replicate number 1): -0.86
9 | CC(=O)Nc1nc(CN2CCC[C@H](Cc3cc(C)nc(C)c3)C2)cs1 [JNJ-73924149] |  |  |  |  | 0.87 | 0.89 |  | 0.91 |  | 0.73 | 0.74 | 0.87 | 0.72 |  | 0.52 | 0.71 | 0.81 | 0.89 | 0.82 |  | Growth Rate (Fibroblast; 6 h, replicate number 1): 0.58; Growth Rate (Fibroblast; 24 h, replicate number 2): 0.79; Growth Rate (HEK-293T; 6 h, replicate number 2): 0.53; Growth Rate (HEK-293T; 18 h, replicate number 2): 0.95; Growth Rate (HEK-293T; 24 h, replicate number 2): 0.95
10 | NCCCNCCCCNCCC(=O)NCCCCCNC(=O)[C@H](CC(N)=O)NC(=O)Cc1ccc(O)cc1O [JORO SPIDER TOXIN 3] |  | -0.97 |  |  |  |  |  |  | 0.16 |  |  | 0.85 |  | 0.49 |  |  |  |  |  | -1 | Growth Rate (Fibroblast; 0 h, replicate number 2): -1; Growth Rate (HEK-293T; 0 h, replicate number 1): -0.96
